{
  "source": "patent US20230104323A1",
  "about": "“FORMULATIONS OF POLYBASIC DRUGS TO REDUCE MULTI-ORGAN TOXICITY” (priority 2019, published 2023)",
  "origin": "cited, not measured here",
  "tested_on": "healthy subjects",
  "details": "plazomicin injection",
  "data": [
    {"smiles": "CN[C@@H]1[C@@H](O)[C@@H](O[C@@H]2[C@@H](O)[C@H](O[C@H]3OC(CNCCO)=CC[C@H]3N)[C@@H](N)C[C@H]2NC(=O)[C@@H](O)CCN)OC[C@]1(C)O", "note": "[plazomicin]", "values": [
      {"measurement": "Nephrotoxicity and ototoxicity in humans", "value": "no nephrotoxicity and ototoxicity"}
    ]}
  ]
}
